Reference: PMC11591307, “An RGD-Conjugated Prodrug Nanoparticle with Blood–Brain–Barrier Penetrability for Neuroprotection Against Cerebral Ischemia–Reperfusion Injury” (Antioxidants, 2024)
Residues, ends and D or L forms follow the SMILES beside them. *: point of attachment. X1 = C[C@@H]1[C@H]2[C@H](O[C@@H]3O[C@H](CO)[C@@H](O)[C@H](O)[C@H]3O)OC=C(C(=O)*)[C@H]2C[C@@H]1O

What was measured:
[1] = H&E staining of heart, liver, spleen and kidney (biosafety in vivo); set-up: species or system rat; settings: Figure S7
Protocol: (§1) Fresh brain, heart, liver, spleen, and kidney tissues from rats were fixed in 4% paraformaldehyde, dehydrated, embedded in paraffin, and sectioned into 4 µm slices. For HE staining, the sections were deparaffinized using a dewaxing agent (G1128, Solarbio, Beijing, China), rehydrated in ethanol of various concentrations, stained with hematoxylin and eosin, dehydrated, and sealed with neutral resin. For Nissl staining, thin sections were immersed in the staining solution for 15 min (G1086, Solarbio, Beijing, China), washed with water, rapidly dehydrated with absolute ethanol, and cleared in xylene for 5 min. The sections were then mounted with neutral resin. Finally, the sections were observed using a light microscope (Nikon Eclipse E100, Tokyo, Japan) and analyzed with a 3D viewer.

BEnd.3 cells [2] = experiment: Impact of integrin αvβ3 inhibitor c(RGDfK) on LA-1 uptake in BEnd.3 cells; assay type: in vitro ADME, Mouse; settings: BEnd.3 cells pretreated 1 h with 100 μM c(RGDfK) (method: 20 nM), then 6.25 μM compound for 3 or 6 h, LC-MS/MS
Protocol: BEnd.3 cells were seeded at 2 × 10⁶ cells/mL in […], with 5 mL DMEM containing 10% FBS. After 12 h, the medium was replaced with 5 mL fresh medium and 1 mL 20 nM c(RGDfK). After 1 h, 1 mL of 6.25 μM compound solution was added, followed by incubation for 3 or 6 h. Cells were washed twice with PBS, collected in 1 mL of HPLC-grade methanol, and centrifuged at 13,300 rpm for 5 min (6766-HS corning® High Speed Microcentrifuge, Corning, NY, USA). The supernatant was concentrated and reconstituted in 200 μL methanol before a final 10 min centrifugation. The supernatant was then used for LC–MS/MS (ACQUITY UPLC I-Class/Xevo TQ-XS, Waters, Milford, MA, USA) analysis.

[3] = In vivo pharmacokinetic study, plasma; set-up: species or system rat; settings: SD rats, intravenous tail injection 30 mg/kg, LC-MS/MS, n = 3
Protocol: We purchased male Sprague-Dawley (SD) rats weighing between 200 and 220 g, which had been catheterized in the jugular vein, from Beijing Sinocon Pharmaceutical Technology Co., Ltd. (Beijing, China). The rats were divided into two groups: LA-1 group and loganin group, with three rats in each group. First, 200 μL of whole blood was collected from each rat at time point zero as a blank control. Subsequently, LA-1 and loganin were administered tail via injection at a dose of 30 mg/kg, dissolved in 0.9% saline. For the pharmacokinetics of the intravenously administered drugs, blood samples of 200 μL were collected from the rats at 5, 15, 30, 45 min, 1, 1.5, 2, 3, 6, 8, 12, and 24 h, using heparinized anticoagulation tubes for processing. After each blood collection, 200 μL of perfusion solution was injected into the rats through the catheter to maintain their physiological status. To obtain the rat plasma, the samples were centrifuged immediately at 3500 rpm for 10 min (5810R) after collection. Methanol (300 μL) was added to plasma samples (100 μL) to precipitate plasma proteins, then rotary evaporation at 35 °C was used to remove methanol from the samples. The LA-1 and loganin were quantified by LC–MS/MS analysis (ACQUITY UPLC I-Class/Xevo TQ-XS, Waters, Milford, MA, USA).

BEnd.3 cells [4] = experiment: Cellular uptake in BEnd.3 cells (LC-MS/MS); assay type: in vitro ADME, Mouse; settings: 6.25 μM; for Intracellular amount over time: 3 or 6 h incubation
Protocol: BEnd.3 cells were seeded in 60mm dishes at 2 × 10⁶ cells/mL, with 5 mL of DMEM containing 10% FBS. After 12 h, the medium was replaced with 5 mL fresh medium, followed by 1 mL of 6.25 μM LA-1 solution. Cells were incubated for 3 or 6 h, washed twice with PBS, and harvested using 1 mL of HPLC-grade methanol. After vortexing for 2 min and centrifuging at 13,300 rpm for 5 min (6766-HS corning® High Speed Microcentrifuge, Corning, NY, USA), the supernatant was concentrated and reconstituted with 200 μL methanol. Samples were centrifuged again at 13,300 rpm for 10 min, and the supernatant was analyzed via LC–MS (ACQUITY UPLC I-Class/Xevo TQ-XS, Waters, Milford, MA, USA). Standard curves were prepared by serial dilutions of HPLC-grade methanol with concentrations ranging from 1 μg/mL to 100 pg/mL for each LA-1.

BEnd.3 cells [5] = experiment: MTT cytotoxicity assay on BEnd.3 cells; assay type: cell-based, Mouse; settings: 24 h treatment, all three concentrations, Figure S6
Protocol: Mouse brain microvascular endothelial cells (BEnd.3) were cultured in DMEM medium containing 10% FBS and maintained at 37 °C in a humidified atmosphere with 5% CO2. Drug solutions were prepared by diluting in PBS to the desired concentrations. Cells were seeded at a density of 4000 cells per well in 96-well plates. Once the cells had adhered, 25 μL of LA-1 or loganin solutions at varying concentrations were added to each well, followed by a 24 h incubation. BEnd.3 cells were treated with 3.12 or 6.25 μM of LA-1 or loganin for 24 h, followed by exposure to 200 μM tertiary-butylhydroperoxide (TBHP) for 4 h to induce oxidative stress. After the treatments, 25 μL of MTT solution (5 mg/mL) was added to each well, and the cells were incubated for an additional 4 h. The supernatant was then carefully removed, and the formazan crystals were dissolved in 150 μL of DMSO. Plates were shaken at room temperature for 15 min, and absorbance was measured at 490/570 nm using a microplate reader (Molecular Devices, SpectraMax ABS, San Jose, CA, USA). Cell viability = (Absorbance (drug well))/(Absorbance (control well)) × 100%

[6] = Intra-brain distribution after ischemic injury; assay type: in vivo, rat; settings: MCAO rats, LA-1 10 mg/kg vs loganin 30 mg/kg i.v., 3 h after administration, right hemisphere, LC-MS/MS, n = 3
Protocol: To investigate the distribution of LA-1 and loganin within the brain, the experimental protocol was as follows: First, the rats were subjected to 2 h of induced ischemia, after which the filament was removed to allow for reperfusion. Subsequently, LA-1 (10 mg/kg) and loganin (30 mg/kg) were administered via tail vein injection. […] At the 3 h time point, the rats were anesthetized, perfused with saline via the heart, and then euthanized to collect brain tissue. The brain tissue was divided into left and right hemispheres, with the right hemisphere representing the ischemic region. The right hemisphere was placed into a 5 mL centrifuge tube, and 600 μL of pre-chilled PBS was added, followed by homogenization on ice. A 200 μL aliquot of the homogenate was combined with 200 μL of chromatography-grade methanol and 200 μL of chromatography-grade acetonitrile, and subjected to ultrasonic treatment for 5 min. The mixture was then centrifuged at 13,000 rpm for 10 min at 4 °C, and the supernatant was collected for concentration. After concentration, 200 μL of chromatography-grade methanol was added for reconstitution, followed by another round of high-speed centrifugation to obtain the supernatant. Finally, the target molecules were quantified using LC–MS/MS (ACQUITY UPLC I-Class/Xevo TQ-XS, Waters, Milford, MA, USA). […]

[7] = Particle size and zeta potential; assay type: physicochemical; settings: laser nanoparticle sizer Nano-ZS90
Protocol: The size distribution and zeta potential of LA-1 and loganin were determined using a laser nanoparticle sizer (Nano-ZS90, Malvern Instruments Ltd., Malvern, Worcestershire, UK).

[8] = Morphology by TEM, SEM and AFM; assay type: physicochemical; settings: SEM, AFM, samples in deionized water, dried
Protocol: Each sample was further diluted to 0.1 mg/mL, and 10 μL was placed dropwise onto copper grids and dried at room temperature for 7 days. Transmission electron microscopy (TEM, […], Tokyo, Japan) and scanning electron microscopy (SEM, Hitachi, S-4800, Tokyo, Japan) were used to observe the morphology. In total, 1 mg of LA-1 or loganin was ultrasonically dispersed in 1 mL of deionized water. Then, 100 μL of the samples were dropped onto 10 × 10 mm mica sheets and air-dried overnight. The surface morphology was characterized by atomic force microscopy (AFM, Bruker, Multimode 8, Bruker, Billerica, Germany).

MCAO rats = experiment: MCAO cerebral ischemia-reperfusion injury model; assay type: in vivo, rat; settings: for Neurological score (Zelonga): 22 h post-treatment, loganin 30 mg/kg, LA-1 10 mg/kg i.v.; for Neurological score (Zelonga) / Infarct area versus model (TTC staining): edaravone 3 mg/kg
Protocol: A selection of 6–8-week-old Sprague–Dawley (SD) male rats weighing 250 to 280 g were divided into five groups, with 12 rats in each group: sham group, model group (MCAO), edaravone group (3 mg/kg), LA-1 group (10 mg/kg), and loganin group (30 mg/kg). In all groups of rats, anesthesia was induced with 3% isoflurane and then maintained at 2.5% isoflurane during surgery. Briefly, a 1–2 cm incision was made along the midline of the rat’s neck to expose the right carotid artery. Then, a nylon suture (A5-243650, Beijing Cinontech Co. Ltd., Beijing, China) coated with silica gel was inserted through the external carotid artery (ECA) into the middle […], which was then occluded. In this instance, the monofilament was not inserted in the sham group. After 2 h, the nylon suture was removed to allow reperfusion, and different drugs were immediately administered to the rats via the tail vein. Additionally, the sham and model groups received an equivalent dose of distilled water, with a dosage of 2 mL/kg. Cerebral blood flow was measured using a laser speckle flow imaging system (RWD Life science Co., Ltd., RFLSI ZW, Shenzhen, China) at three distinct time points: before ischemia, 2 h after ischemia, and 22 h after reperfusion. Neurological function scores for the treatment groups were assessed blindly at 22 h post-MCAO using the ZeLonga scoring system, after which the anesthetized rats were quickly euthanized. The brain tissue was harvested and then sectioned into seven slices, with six slices subjected to 2,3,5-triphenyltetrazolium chloride (TTC) staining to calculate the brain infarct area, while the remaining slice was preserved for future use.
as §1
Paraffin sections were prepared as described for HE staining. The sections were dewaxed and antigen retrieval was performed using citric acid (pH 6.0). The sections were blocked in 0.1% Triton in PBS for 15 min. TUNEL reaction solution (TDT:dUTP:buffer = 1:5:50) was added, followed by blocking with BSA. After washing, sections were incubated with the secondary antibody (Cy3-goat anti-rabbit, GB21303, 1:300) at room temperature for 50 min. Finally, after PBS washing, the sections were stained with DAPI, mounted with an anti-fading mounting medium, and images were acquired using a fluorescence microscope (Nikon Eclipse C1, Tokyo, Japan).

[9] = 22 h reperfusion, loganin 30 mg/kg i.v.
[10] = LA-1 10 mg/kg, loganin 30 mg/kg i.v.

SMILES | Pathophysiological changes in heart, liver, spleen and kidney tissue sections [1] | Decrease of cellular uptake in the presence of c(RGDfK) (BEnd.3 cells [2]) | Time at which plasma concentration was below the limit of detection / undetectable [3] | half-life ([3]; male, Sprague-Dawley, rat) | Intracellular amount over time (BEnd.3 cells [4]) | Cellular uptake of LA-1 relative to loganin (BEnd.3 cells [4]; 6 h incubation, n = 3) | Cell viability (cytotoxicity) (BEnd.3 cells [5]) | Brain accumulation in ischemic brain tissue [6] | Plasma half-life [3] | polydispersity index (PDI) [7] | Particle Size ([7]; mean ± SD) | Zeta Potential ([7]; mean ± SD) | Nanostructure morphology [8] | Neurological score (Zelonga) (MCAO rats) | Infarct area (TTC staining) (MCAO rats; 22 h reperfusion, LA-1 10 mg/kg, loganin 30 mg/kg i.v.) | Infarct area versus model (TTC staining) (MCAO rats; [9]) | H&E staining of cortical neurons (MCAO rats; [10]) | Nissl staining of neurons (MCAO rats; [10])
CC(C)[C@H](NC(=O)[C@H](CC(=O)O)NC(=O)CNC(=O)[C@H](CCCNC(=N)N)NC(=O)C1=CO[C@@H](O[C@@H]2O[C@H](CO)[C@@H](O)[C@H](O)[C@H]2O)[C@@H]2[C@@H](C)[C@@H](O)C[C@H]12)C(=O)O [LA-1, LA-Arg-Gly-Asp-Val] (X1-RGDV-OH) | No significant pathophysiological changes | approximately 3 fold | 90 min | ~10 min | continued to accumulate | approximately 2148 fold | no significant change | dramatically higher than that of loganin | – | – | – | – | – | – | – | – | – | –
COC(=O)C1=CO[C@@H](O[C@@H]2O[C@H](CO)[C@@H](O)[C@H](O)[C@H]2O)[C@@H]2[C@@H](C)[C@@H](O)C[C@H]12 [Loganin] | – | – | 180 min | – | reached a plateau after 3 h | – | no significant change | – | ~45 min | 0.194 | 231.5 ± 81.23 nm | −4.16 ± 4.40 mV | irregular and unevenly dispersed | reduction trend in neurological score but without statistically significant difference | 16.843% | significant infarct area reduction | improved the morphology, though to a lesser extent than LA-1 | the recovery was less pronounced compared to LA-1
CC1=NN(c2ccccc2)C(=O)C1 [edaravone, Edaravone] | – | – | – | – | – | – | – | – | – | – | – | – | – | reduction trend in neurological score but without statistically significant difference | – | significant infarct area reduction | – | –
